PubChem BioAssay AID602305 (The Scripps Research Institute Molecular Screening Center, 2012)
Calls of active or inactive are those of the source. No rule for the calls is given here.

Test system: cell line, cAMP TR-FRET counterscreen, inhibition
Assay: dose response, counter-screen, cell-based (AID 602305)

With `CCOP(=O)(CCP(=O)(OCC)OCC)OCC.C[CH2][Sn]([Cl])([Cl])[CH2]C` the IC50 was > 64.5 µM (inactive).
